Where “and” joins values, the source holds several entries; their conditions need not be identical. Equal entries are not always repeated. Entries after “also recorded” stand apart in the source; their conditions may differ. Where two headings read alike, the source gives them in different places.
Legend:
[1] = Single-dose pharmacokinetic study, plasma MnBuOE by LC-MS/MS; type: in vivo, dog
Method: Intravenous catheters were placed in the jugular vein of each dog under heavy sedation (dexmedetomidine, 500 mcg/m^2) 24-h prior to initiation of the pharmacokinetic study to facilitate blood sampling. Baseline pulse and blood pressure (Cardell Vet Monitor 9401 Blood Pressure Monitor) were recorded prior administration of MnBuOE. MnBuOE (5.64 mg/mL) was injected subcutaneously in the dorsal intrascapular region. Following injection, 3–6 mL of blood was collected after 10 min, 30 min, 1 h, 2 h, 4 h, 6 h, 8 h, 24 h, 48 h, 72 h, 7 days, and 14 days into lithium heparin tubes (Vacutainer, 1.3 mL). Whole blood was centrifuged at 1500×g for 20 min, and plasma was collected and stored in 1% citric acid at −80 °C.
Relevant PK parameters (e.g. C max, T max, AUC, clearance, t 1/2) were obtained by compartmental and non-compartmental modules within WinNonlin v. Plasma MnBuOE levels peaked at 30 min post-injection with a mean concentration of 3.993 μM (Fig. 2a), followed by a complex tissue distribution profile (non-linear trace in log-linear plot) within first 6 h post injection (Fig. 2a). […] Compartmental (first-order absorption—2 compartment model) calculations including 0–48 h data were performed on the averaged PK profile for the purpose of obtaining PK parameters needed for the simulation of the multi-dose regimen.

normal dogs [2] = assay: Maximally tolerated dose / single-dose safety monitoring (pulse, blood pressure, drug reactions); type: in vivo, dog; settings: for average heart rate at peak: 1 h after injection
Method: (§1) Safety was assessed by evaluation of standard physical and laboratory parameters of systemic health. A full physical examination was performed prior to initiation of the study and on each treatment and sampling day. Indirect blood pressure monitoring was performed using Cardell Vet Monitor 9401 Blood Pressure Monitor. Pulse was quantified as heart beats per minute according to manual counts, as well as quantified with a blood pressure monitor. There was good correlation between pulse rates counted with manual methods compared to the blood pressure monitor (Figure S1). Standard laboratory assessments (complete blood cell count, biochemistry panel, urinalysis) were repeated throughout the phases of the study to assess systemic health.
Thus, 1 mg/kg was selected as a safe initial dose for the MTD and single-dose PK studies in this work.

normal dogs [3] = assay: Laboratory health assessments (complete blood cell count, biochemistry panel, urinalysis); type: in vivo, dog
Method: as §1

normal dogs [4] = assay: Histopathologic evaluation of necropsy tissues; type: in vivo, dog; settings: 0.25 mg/kg Mon/Wed/Fri five doses
Method: Tissue samples collected at necropsy were stored in 10% neutral buffered formalin, paraffin embedded, sectioned, and stained with hematoxylin and eosin. Histopathologic evaluations of the tissues were performed by a veterinary pathologist (KGB).

normal dogs [5] = assay: Pulse monitoring in multiple dose study; type: in vivo, dog; settings: 0.25 mg/kg sc Mon/Wed/Fri
Method: as §1

mice = system: mice; set-up: method as in PMID 27098749; settings: sc every 3 days for 5 weeks; cited from earlier work
nonhuman primates = system: nonhuman primates; set-up: method as in PMID 27098749; settings: sc every 3 days for 5 weeks; cited from earlier work
[6] = mice, cited from earlier work
[7] = set-up: method as in unpublished data; settings: rats, 1 mg/kg; ref unpublished data; cited from earlier work
[8] = set-up: method as in PMID 27098749; settings: non-human primates, 1 mg/kg; cited from earlier work
[9] = single 1 mg/kg sc, first order absorption two compartments
[10] = single 1 mg/kg sc, non-compartmental
[11] = 3 weeks post 0.25 mg/kg Mon/Wed/Fri, concurrent oral medications

CCCCOCC[n+]1ccccc1-c1c2nc(c(-c3cccc[n+]3CCOCCCC)c3ccc([n-]3)c(-c3cccc[n+]3CCOCCCC)c3nc(c(-c4cccc[n+]4CCOCCCC)c4ccc1[n-]4)C=C3)C=C2.[Mn+3] [MnBuOE, Mn(III) meso-tetrakis (N-n-butoxyetylpyridium-2-yl) porphyrin]
plasma half-life t 1/2, primary elimination from central compartment ([1]; single 1 mg/kg sc, 6 to 48 h): 7 h | Cmax ([1]; single 1 mg/kg sc, 30 min post-injection, 1 mg/kg, read-out: peak plasma concentration (C max), mean): 3990 nM and 4000 nM | estimated terminal half-life (secondary processes) ([1]; single 1 mg/kg sc, 48 h to 14 days): 480 h | MnBuOE remaining in plasma ([1]; single 1 mg/kg sc, at 48 h): 1% | time of peak plasma drug concentration (T max) ([1]; single 1 mg/kg sc, post-injection): 0.5 h | AUCinfinite [1, 9]: 42.52 | C max [1, 9]: 4830 ng/mL | CL/F [1, 9]: 0.02 L/h/kg body weight | V/F (4–48 h process) [1, 9]: 0.14 L/kg body weight | t 1/2 (4–48 h) [1, 9]: 6.64 h | t max ([1]; single 1 mg/kg sc, first order absorption two compartments, averaged profile 0–48 h): 0.46 h | AUC0–48h [1, 10]: 52.09 | AUCinfinite [1, 10]: 57.82 | C max [1, 10]: 5000 ng/mL | CL/F [1, 10]: 0.020 L/h/kg body weight | V/F (4–48 h process) [1, 10]: 0.21 L/kg body weight | V/F (7–14 day process) [1, 10]: 13.42 L/kg body weight | t 1/2 (4–48 h) [1, 10]: 7.13 h | t 1/2 (7–14 day) [1, 10]: 509.8 h | t max ([1]; single 1 mg/kg sc, non-compartmental (WinNonlin), individual dogs): 0.5 h | drug eliminated from the plasma ([1]; single-dose 14-day PK study, after 48 h): 99% | heart rate following injection (normal dogs [2]; 0.25 mg/kg sc): 104–116 beats per minute | pulse 24 h post-injection (normal dogs [2]; 0.25 mg/kg sc): did not alter pulse rate 24 h post-injection; also recorded: normalized by 24 h | tachycardia grade (normal dogs [2]; 0.25 mg/kg sc): did not induce a clinical tachycardia; also recorded: mild increase in heart rate | anaphylactic or local drug reactions (normal dogs [2]; 0.25 mg/kg sc with premedication): No anaphylactic or local drug reactions were observed | local drug reaction at the injection site (normal dogs [2]; 0.5 mg/kg sc): No local drug reaction at the injection site was noted | pulse 24 h post-injection (normal dogs [2]; 0.5 mg/kg sc): remained slightly increased | tachycardia grade (normal dogs [2]; 0.5 mg/kg sc): mild to moderate tachycardia | average heart rate at peak (normal dogs [2]; 0.5 mg/kg sc, one dog): 144 beats per minute | anaphylactic reaction (normal dogs [2]; 0.5 mg/kg sc, one dog, pre-administration of diphenhydramine, famotidine, prednisone): did not occur | blood pressure change with tachycardia (normal dogs [2]; 1 mg/kg sc): not associated with changes in blood pressure | local drug reactions in the subcutaneous site of injection (normal dogs [2]; 1 mg/kg sc): occurred with two of the dogs | persistence of tachycardia (normal dogs [2]; 1 mg/kg sc): at least 6 h | pulse 24 h post-injection (normal dogs [2]; 1 mg/kg sc): remained increased compared to resting heart rates | tachycardia grade (normal dogs [2]; 1 mg/kg sc): severe sinus tachycardia | average heart rate at peak (normal dogs [2]; 1 mg/kg sc): 210 beats per minute | time to development of acute anaphylactic drug reaction (normal dogs [2]; 1 mg/kg sc, following injection): 15 to 20 min | acute drug reaction (normal dogs [2]; 1 mg/kg sc, no premedication): acute anaphylactic drug reaction; also recorded: induced an anaphylactic drug reaction | maximum tolerated dose (MTD) (normal dogs [2]; sc, dogs, with premedication (anti-histamines, steroids)): 0.25 mg/kg | indirect blood pressure after single dose (normal dogs [2]; single sc dose, Supplemental Fig. 2): subclinical fluctuations in recorded indirect blood pressures | Urinalysis (normal dogs [3]; 3 weeks post 0.25 mg/kg Mon/Wed/Fri): Alkaline urine (pH = 9) (n = 2/3) | Complete blood cell count (normal dogs [3]; 3 weeks post 0.25 mg/kg Mon/Wed/Fri, concurrent diphenhydramine, famotidine, prednisone): Stress leukogram (exogenous glucocorticoids) (n = 3/3) | Chemistry panel: acid-base finding (normal dogs [3]; [11]): Slight to mild metabolic acidosis (increased anion gap) | Chemistry panel: cholesterol finding (normal dogs [3]; [11]): Mild hypocholesterolemia | Chemistry panel: liver enzyme finding (normal dogs [3]; [11]): Mildly increased liver enzyme activity (ALP, ALT) | Chemistry panel (normal dogs [3]; 48 h post 0.25 mg/kg): No remarkable changes in serum biochemistries were seen; also recorded: Unremarkable | Complete blood cell count (normal dogs [3]; 48 h post 0.25 mg/kg): Unremarkable | Urinalysis (normal dogs [3]; 48 h post 0.25 mg/kg, one dog analyzed): Alkaline urine (pH = 9) (n = 1/1) | Chemistry panel (normal dogs [3]; 48 h post 1 mg/kg): Unremarkable | Complete blood cell count (normal dogs [3]; 48 h post 1 mg/kg): Unremarkable | Urinalysis (normal dogs [3]; 48 h post 1 mg/kg): Alkaline urine (pH = 9) (n = 2/3) | mean anion gap (normal dogs [3]; final day of 3-week 0.25 mg/kg study, reference range 11.2–19.9): 21.5 | mean ALT (normal dogs [3]; final day of 3-week 0.25 mg/kg study, reference range 12–54 IU/L): 133 IU/L | mean ALP (normal dogs [3]; final day of 3-week 0.25 mg/kg study, reference range 16–140 IU/L): 203 IU/L | mean cholesterol (normal dogs [3]; final day of 3-week 0.25 mg/kg study, reference range 124–344 mg/dL): 96 mg/dL | Characteristics of lesion, kidney (normal dogs [4]; necropsy): Acute, multifocal, mild Acute multifocal, moderate | Characteristics of lesion, liver (normal dogs [4]; necropsy): Marked, multifocal to diffuse, random Marked, multifocal to diffuse, centrilobular to random Marked, diffuse, panlobular, random | Characteristics of lesion, lung (normal dogs [4]; necropsy): Multifocal, mild, neutrophilic, sterile Multifocal, moderate, neutrophilic sterile | Characteristics of lesion, subcutaneous adipose (normal dogs [4]; necropsy): Multifocal, mild | Histopathologic appearance, lymph nodes (normal dogs [4]; necropsy): mildly reactive | Incidence of diagnosis, kidney (normal dogs [4]; necropsy): n = 3/3 | Incidence of diagnosis, liver (normal dogs [4]; necropsy): n = 3/3 | Incidence of diagnosis, lung (normal dogs [4]; necropsy): n = 3/3 | Incidence of diagnosis, subcutaneous adipose (normal dogs [4]; necropsy): n = 3/3 | Histopathologic diagnosis, kidney (normal dogs [4]; necropsy 48 h after last dose): acute, mild to moderate tubular degeneration and necrosis of the kidney | Histopathologic diagnosis, liver (normal dogs [4]; necropsy 48 h after last dose): marked hydropic degeneration of the liver | Histopathologic diagnosis, lung (normal dogs [4]; necropsy 48 h after last dose): mild to moderate sterile bronchointerstitial/interstitial pneumonia | Histopathologic diagnosis, subcutaneous adipose (injection site) (normal dogs [4]; necropsy 48 h after last dose): mild necrosupporative/granulomatous inflammation; also recorded: Necrosuppurative/granulomatous steatitis | heart rate 1 h after each injection (normal dogs [5]): Mildly to moderately increased heart rate | baseline pulse prior to injection (normal dogs [5]; multiple doses): not altered | no adverse effects level (NOAEL), loading dose (mice): 12 mg/kg | no adverse effects level (NOAEL), maintenance dose (mice): 2 mg/kg | no adverse effects level (NOAEL), loading dose (nonhuman primates): 6 mg/kg | no adverse effects level (NOAEL), maintenance dose (nonhuman primates): 2 mg/kg | Cmax ([6]; 1 mg/kg, ref unpublished data): 1000 nM | Cmax ([6]; dose adjusted from 6 mg/kg): ~300 nM | Cmax [7]: 1000 nM | Cmax [8]: 1600 nM

— paper PMC5532403, “Potential for a novel manganese porphyrin compound as adjuvant canine lymphoma therapy” (Cancer Chemotherapy and Pharmacology, 2017)
